Where two headings read alike, the source gives them in different places.
Tests used:
[1] = system: isolated rat liver mitochondria; assay: Mitochondrial oxygen consumption (glutamate/malate or succinate driven, state 4 and state 3); type: biochemical; conditions: for Glutamate/malate driven respiration State 3 / Glutamate/malate driven respiration State 4 / Succinate-driven respiration State 3 / Succinate-driven respiration State 4: oxygen consumption, DMSO-treated = 1; for lowest concentration significantly affecting mitochondrial oxygen consumption: tested at 1 to 100-fold Cmax; as to State 3 respiration driven by succinate at 10XCmax: key: 0 indicates that the drug had no effects (negative); as to State 3 respiration driven by succinate at 1XCmax: key: 0 indicates that the drug had no effects (negative)
Method in brief: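 Rat liver mitochondria (1 mg/ml protein) exposed 5 min to kinase inhibitors in 0.1% DMSO, then O2 consumption measured by Clark-type electrode with glutamate/malate or succinate (state 4), ADP added after 3 min (state 3). Rates normalized to 0.1% DMSO controls set to 1.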

[2] = system: RCC IV; assay: RCC IV activity in submitochondrial particles; type: biochemical, rat; parameters: key to RCC IV at 50XCmax / RCC IV at 100XCmax: activity relative to DMSO-treated controls (control set as 1 = 100%); conditions: 50XCmax; DMSO treated samples set as 1; in %
Method in brief: (§1)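 Kinase inhibitors were preincubated 15 min with submitochondrial particles (1 mg/ml) before complex activities were measured. RCC I was the rotenone-sensitive portion (activity without minus with rotenone). RCC I/V was read at 340 nm and RCC II at 600 nm every 1 min for 6 min. RCC III and IV were read at 550 nm every 10 s for 2 min. Activities are normalized to DMSO controls set as 1.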

[3] = system: isolated rat liver mitochondria; assay: Mitochondrial inner membrane potential (MMP), Rhodamine 123; type: biochemical; conditions: difference in signal between KI and DMSO treated samples at the end of experiments
Description: Fig. 3 KI effects on mitochondrial inner membrane potential (MMP). […] In a, c, data are means and standard derivations from three separate experiments. *p < 0.05 as compared to DMSO-treated samples at the end of experiments. In b, data are means of two independent experiments

[4] = system: isolated rat liver mitochondria; assay: Mitochondrial swelling (absorbance at 535 nm); type: biochemical; conditions: difference in signal between KI and DMSO treated samples at the end of experiments; as to Swelling 5XCmax: key: 0 indicates that the drug had no effects (negative)
[5] = system: isolated rat liver mitochondria; assay: Mitochondrial ROS production (CM-H2DCFDA); conditions: DMSO treated samples set as 1
[6] = system: RCC III; assay: RCC III activity in submitochondrial particles; type: biochemical, rat; parameters: key to RCC III at 100XCmax: activity relative to DMSO-treated controls (control set as 1 = 100%); conditions: 100XCmax
Method in brief: as §1

[7] = system: isolated rat liver mitochondria; conditions: positive control alamethicin treated samples
[8] = cited from earlier work
[9] = 30XCmax, DMSO treated samples set as 1
[10] = human therapeutic Cmax at FDA recommended dosages, ref product labeling and drug approval packages at the official FDA website
[11] = human therapeutic maximal blood concentration, ref product labeling
[12] = read-out: Cmax at µM, human therapeutic maximal blood concentration, ref product labeling

## CC[C@H](Nc1ncnc2[nH]cnc12)c1nc2cccc(F)c2c(=O)n1-c1ccccc1 [Idelalisib]
[1]; DMSO treated samples set as 1
  State 3 respiration driven by succinate at 1XCmax: 0
  State 4 respiration driven by succinate at 1XCmax: 0
  State 3 respiration driven by succinate at 2.5XCmax: 0
  State 4 respiration driven by succinate at 2.5XCmax: 0
  State 3 respiration driven by succinate at 5XCmax: 0
  State 4 respiration driven by succinate at 5XCmax: 0
  State 3 respiration driven by succinate at 10XCmax: 0
  State 4 respiration driven by succinate at 10XCmax: 0
  State 3 respiration driven by succinate at 20XCmax: 0
  State 4 respiration driven by succinate at 20XCmax: 0
  State 3 respiration driven by glutamate/malate at 50XCmax: 0.76±0.04
  State 3 respiration driven by succinate at 50XCmax: 0
  State 4 respiration driven by succinate at 50XCmax: 0
  State 3 respiration driven by glutamate/malate at 100XCmax: 0.66±0.03
  State 3 respiration driven by succinate at 100XCmax: 0.65±0.03
  State 4 respiration driven by succinate at 100XCmax: 0
[1]; [9]
  State 3 respiration driven by succinate at 30XCmax: 0
  State 4 respiration driven by succinate at 30XCmax: 0
[1]; 50-fold Cmax
  Glutamate/malate driven respiration State 3: 0.76 ± 0.04
  Glutamate/malate driven respiration State 4: 1.00 ± 0.08
  Succinate-driven respiration State 3: 0.83 ± 0.06
  Succinate-driven respiration State 4: 0.97 ± 0.04
[1]; 100-fold Cmax
  Glutamate/malate driven respiration State 3: 0.66 ± 0.03
  Glutamate/malate driven respiration State 4: 1.13 ± 0.05
  Succinate-driven respiration State 3: 0.65 ± 0.03
  Succinate-driven respiration State 4: 1.05 ± 0.01
[1]
  lowest concentration significantly affecting mitochondrial oxygen consumption: 50 fold Cmax
[2]
  RCC IV at 50XCmax: 0
[3]
  MMP measured by Rhodamine 123 at 1XCmax: 0
  MMP measured by Rhodamine 123 at 2.5XCmax: 0
  MMP measured by Rhodamine 123 at 5XCmax: 0
  MMP measured by Rhodamine 123 at 10XCmax: 0
  MMP measured by Rhodamine 123 at 20XCmax: 0
  MMP measured by Rhodamine 123 at 30XCmax: 0
  MMP measured by Rhodamine 123 at 50XCmax: 0
  MMP measured by Rhodamine 123 at 100XCmax: 0
[4]
  Swelling 1XCmax: 0
  Swelling 2.5XCmax: 0
  Swelling 5XCmax: 0
  Swelling 10XCmax: 0
  Swelling 20XCmax: 0
  Swelling 30XCmax: 0
  Swelling 50XCmax: 0
  Swelling 100XCmax: 0
[5]
  ROS measured by CM-H2DCFDA at 1XCmax: 0
  ROS measured by CM-H2DCFDA at 2.5XCmax: 0
  ROS measured by CM-H2DCFDA at 5XCmax: 0
  ROS measured by CM-H2DCFDA at 10XCmax: 0
  ROS measured by CM-H2DCFDA at 20XCmax: 0
  ROS measured by CM-H2DCFDA at 30XCmax: 0
  ROS measured by CM-H2DCFDA at 50XCmax: 0
  ROS measured by CM-H2DCFDA at 100XCmax: 0
[6]
  RCC III at 100XCmax: 0
[7]
  Cytochrome c release 1XCmax: 0
  Cytochrome c release 2.5XCmax: 0
  Cytochrome c release 5XCmax: 0
  Cytochrome c release 10XCmax: 0
  Cytochrome c release 20XCmax: 0
  Cytochrome c release 30XCmax: 0
  Cytochrome c release 50XCmax: 0
  Cytochrome c release 100XCmax: 0
[8]; [10]
  Cmax: 4.64 µM
[8]; [11]
  Cmax (ng or µg/ml): 1.927 µg/mL
[8]; [12]
  Cmax: 4.64 µM

## COc1cc2nccc(Oc3ccc(NC(=O)NC4CC4)c(Cl)c3)c2cc1C(N)=O [Lenvatinib]
[1]; DMSO treated samples set as 1
  State 3 respiration driven by succinate at 1XCmax: 0
  State 4 respiration driven by succinate at 1XCmax: 0
  State 3 respiration driven by succinate at 2.5XCmax: 0
  State 4 respiration driven by succinate at 2.5XCmax: 0
  State 3 respiration driven by succinate at 5XCmax: 0
  State 4 respiration driven by succinate at 5XCmax: 0
  State 3 respiration driven by succinate at 10XCmax: 0
  State 4 respiration driven by succinate at 10XCmax: 0
  State 3 respiration driven by succinate at 20XCmax: 0
  State 4 respiration driven by succinate at 20XCmax: 0
  State 3 respiration driven by glutamate/malate at 50XCmax: 0.70±0.02
  State 3 respiration driven by succinate at 50XCmax: 0
  State 4 respiration driven by succinate at 50XCmax: 0
  State 3 respiration driven by glutamate/malate at 100XCmax: 0.74±0.04
  State 3 respiration driven by succinate at 100XCmax: 0
  State 4 respiration driven by succinate at 100XCmax: 0
[1]; 30-fold Cmax
  Glutamate/malate driven respiration State 3: 0.76 ± 0.05
  Glutamate/malate driven respiration State 4: 0.95 ± 0.06
  Succinate-driven respiration State 3: 0.86 ± 0.04
  Succinate-driven respiration State 4: 0.94 ± 0.01
[1]; [9]
  State 3 respiration driven by glutamate/malate at 30XCmax: 0.76±0.05
  State 3 respiration driven by succinate at 30XCmax: 0
  State 4 respiration driven by succinate at 30XCmax: 0
[1]; 50-fold Cmax
  Glutamate/malate driven respiration State 3: 0.70 ± 0.02
  Glutamate/malate driven respiration State 4: 0.93 ± 0.01
  Succinate-driven respiration State 3: 0.90 ± 0.01
  Succinate-driven respiration State 4: 0.96 ± 0.03
[1]; 100-fold Cmax
  Glutamate/malate driven respiration State 3: 0.74 ± 0.04
  Glutamate/malate driven respiration State 4: 1.06 ± 0.06
  Succinate-driven respiration State 3: 0.99 ± 0.03
  Succinate-driven respiration State 4: 1.07 ± 0.03
[1]
  lowest concentration significantly affecting mitochondrial oxygen consumption: 30 fold Cmax
[2]
  RCC IV at 50XCmax: 0
[3]
  MMP measured by Rhodamine 123 at 1XCmax: 0
  MMP measured by Rhodamine 123 at 2.5XCmax: 0
  MMP measured by Rhodamine 123 at 5XCmax: 0
  MMP measured by Rhodamine 123 at 10XCmax: 0
  MMP measured by Rhodamine 123 at 20XCmax: 0
  MMP measured by Rhodamine 123 at 30XCmax: 0
  MMP measured by Rhodamine 123 at 50XCmax: 0
  MMP measured by Rhodamine 123 at 100XCmax: 0
[4]
  Swelling 1XCmax: 0
  Swelling 2.5XCmax: 0
  Swelling 5XCmax: 0
  Swelling 10XCmax: 0
  Swelling 20XCmax: 0
  Swelling 30XCmax: 0
  Swelling 50XCmax: 0
  Swelling 100XCmax: 0
[5]
  ROS measured by CM-H2DCFDA at 1XCmax: 0
  ROS measured by CM-H2DCFDA at 2.5XCmax: 0
  ROS measured by CM-H2DCFDA at 5XCmax: 0
  ROS measured by CM-H2DCFDA at 10XCmax: 0
  ROS measured by CM-H2DCFDA at 20XCmax: 0
  ROS measured by CM-H2DCFDA at 30XCmax: 0
  ROS measured by CM-H2DCFDA at 50XCmax: 0
  ROS measured by CM-H2DCFDA at 100XCmax: 0
[6]
  RCC III at 100XCmax: 0
[7]
  Cytochrome c release 1XCmax: 0
  Cytochrome c release 2.5XCmax: 0
  Cytochrome c release 5XCmax: 0
  Cytochrome c release 10XCmax: 0
  Cytochrome c release 20XCmax: 0
  Cytochrome c release 30XCmax: 0
  Cytochrome c release 50XCmax: 0
  Cytochrome c release 100XCmax: 0
[8]; [10]
  Cmax: 0.68 µM
[8]; [11]
  Cmax (ng or µg/ml): 0.291 µg/mL
[8]; [12]
  Cmax: 0.68 µM

From paper PMC5515969, “Effects of 31 FDA approved small-molecule kinase inhibitors on isolated rat liver mitochondria” (Archives of Toxicology, 2016)
